Test results from US4522815A, “Anthracycline glycosides” (priority 1982, dated 1985).
≈ marks a conversion by molar mass, not a printed value. Like-named read-outs stand apart in the source and are kept apart here.

Tests used:
HeLa cells = experiment: Colony inhibition test against HeLa cells in vitro (cloning efficiency), treatment for 24 hrs; type: cell-based; conditions: for activity at 0.0015 µg/mL: 1.5 ng/ml; for activity at 0.0062 µg/mL: 6.2 ng/ml; for activity at 0.025 µg/mL: 25 ng/ml; for activity at 0.1 µg/mL: 100 ng/ml; for IC50: HeLa colony inhibition, read-out: ID50 (the source's name)
ascitic P388 leukemia = experiment: Antitumor activity against ascitic P388 leukemia in CDF-1 mice, treatment i.p. on day 1; type: in vivo
Description: The primary screening […] was carried out in CDF-1 mice bearing ascitic P388 leukemia (10^6 cells/mouse). Both IIa and IIc were suspended in 10%. Tween 80 and injected intraperitoneally.
Results of the primary screening "in vivo" carried out in CDF-1 mice bearing P388 ascitic leukemia and treated i.p. the day after tumor transplantation, are reported in Table 5.
Antitumor activity against ascitic P388 leukekemia.
(§1) Treatment i.p. on day 1.
^a median survival time; % over untreated controls
^b long term survivors (≥ 60 days)
^c evaluated on the basis of autoptic findings on dead mice
(§2) ^d data of two experiments (range)
^e date of three experiments (range)
Antitumor activity of Ib and Id against ascitic P388
as §1

Gross leukemia [1] = experiment: Oral activity against i.v. transplanted Gross leukemia (i.v. comparators); type: in vivo, C3H/Me mice; conditions: for T/C %, median survival time / Toxic deaths: Table 7
Excerpt: (§3) Results of studies performed in C3H/Me mice carrying i.v. transplanted Gross leukemia and treated i.v. the day after tumor transplantation, are reported in Table 6. […] The compounds Ib and Id were further investigated for oral activity on Gross leukemic transplanted i.v., in comparison with DNR, DX given i.v. and 4-dm DNR given oral route.
Oral activity of Ib and Id against Gross leukemia
^a days after transplantation
as §2

Gross leukemia [2] = experiment: Antitumor activity against i.v. transplanted Gross leukemia in C3H/Me mice, treatment i.v. on day 1; type: in vivo; conditions: for T/C, median survival time; % over untreated controls / Toxic deaths: Table 6
Excerpt: as §3
Antitumor activity against i.v. Gross leukemia.
Treatment i.v. on day 1.

[3] = Homo sapiens, HeLa, Table 1, 24 hrs, read-out: No of colonies, % of untreated controls
[4] = Table 2, 30 mg/kg i.p. day 1, two experiments
[5] = Homo sapiens, HeLa, Table 3, 24 hrs, read-out: No of colonies, % of untreated controls

COc1cccc2c1C(=O)c1c(O)c3c(c(O)c1C2=O)C[C@@](O)(C(=O)CO)C[C@@H]3O[C@H]1C=C[C@@H](O)[C@H](C)O1 [Compound IIc, 7-0-(2,3,6-trideoxy-α-L-erythro-hex-2-enopyranosyl)-adriamycinone]
times less cytotoxic than DX (HeLa cells; HeLa cells cloning efficiency, vs DX): about 5 times | activity at 0.0015 µg/mL (HeLa cells; [3]): 86% | activity at 0.0062 µg/mL (HeLa cells; [3]): 68% | activity at 0.025 µg/mL (HeLa cells; [3]): 65% | activity at 0.1 µg/mL (HeLa cells; [3]): 33% | activity at 0.4 µg/mL (HeLa cells; Homo sapiens, HeLa, Table 1, 400 ng/ml, 24 hrs, read-out: No of colonies, % of untreated controls): 4% | IC50 (HeLa cells; Homo sapiens, Table 1, 24 hrs): ~0.05 µg/mL (≈ 0.095 µM) | LTS, long term survivors (≥ 60 days) (ascitic P388 leukemia; Table 2, 17.6 mg/kg i.p. day 1): 0/8 | T/C, median survival time; % over untreated controls (ascitic P388 leukemia; Table 2, 17.6 mg/kg i.p. day 1): 118% | Toxic deaths (autoptic findings on dead mice) (ascitic P388 leukemia; Table 2, 17.6 mg/kg i.p. day 1): 0/8 | LTS, long term survivors (≥ 60 days) (ascitic P388 leukemia; Table 2, 23 mg/kg i.p. day 1): 0/7 | T/C, median survival time; % over untreated controls (ascitic P388 leukemia; Table 2, 23 mg/kg i.p. day 1): 127% | Toxic deaths (autoptic findings on dead mice) (ascitic P388 leukemia; Table 2, 23 mg/kg i.p. day 1): 0/7 | LTS, long term survivors (≥ 60 days) (ascitic P388 leukemia; [4]): 0/17 | Toxic deaths (autoptic findings on dead mice) (ascitic P388 leukemia; [4]): 0/17 | T/C, median survival time; % over untreated controls (ascitic P388 leukemia; Table 2, 30 mg/kg i.p. day 1, two experiments (range)): 125-136% | LTS, long term survivors (≥ 60 days) (ascitic P388 leukemia; Table 2, 45 mg/kg i.p. day 1): 0/10 | T/C, median survival time; % over untreated controls (ascitic P388 leukemia; Table 2, 45 mg/kg i.p. day 1): 130% | Toxic deaths (autoptic findings on dead mice) (ascitic P388 leukemia; Table 2, 45 mg/kg i.p. day 1): 0/10 | LTS, long term survivors (≥ 60 days) (ascitic P388 leukemia; Table 2, 67.5 mg/kg i.p. day 1): 0/10 | T/C, median survival time; % over untreated controls (ascitic P388 leukemia; Table 2, 67.5 mg/kg i.p. day 1): 140% | Toxic deaths (autoptic findings on dead mice) (ascitic P388 leukemia; Table 2, 67.5 mg/kg i.p. day 1): 0/10 | LTS, long term survivors (≥ 60 days) (ascitic P388 leukemia; Table 2, 100 mg/kg i.p. day 1): 0/7 | T/C, median survival time; % over untreated controls (ascitic P388 leukemia; Table 2, 100 mg/kg i.p. day 1): 150% | Toxic deaths (autoptic findings on dead mice) (ascitic P388 leukemia; Table 2, 100 mg/kg i.p. day 1): 0/7 | toxicity and potency vs parent drugs DNR and DX (ascitic P388 leukemia; ascitic P388, i.p.): less toxic and potent than the parent drugs DNR and DX | antitumor activity on P388 ascitic leukemia (ascitic P388 leukemia; i.p. day 1, IIa: two doses tested incl. Mx TD): a certain antitumor activity, which is lower than that of DX

C[C@@H]1O[C@@H](O[C@H]2C[C@](O)(C(=O)CO)Cc3c(O)c4c(c(O)c32)C(=O)c2ccccc2C4=O)C[C@H](O)[C@H]1O [Compound Id, 4-demethoxy-7-0-(2,6-dideoxy-α-L-arabino-hexopyranosyl)-adriamycinone]
T/C %, median survival time (Gross leukemia [1]; oral +1, 1.2 mg/kg): 171% | Toxic deaths (Gross leukemia [1]; oral +1, 1.2 mg/kg): 0/9 | T/C %, median survival time (Gross leukemia [1]; oral +1, 2.1 mg/kg): 185% | Toxic deaths (Gross leukemia [1]; oral +1, 2.1 mg/kg): 0/8 | T/C %, median survival time (Gross leukemia [1]; oral +1, 3.8 mg/kg): 214% | Toxic deaths (Gross leukemia [1]; oral +1, 3.8 mg/kg): 3/8 | T/C %, median survival time (Gross leukemia [1]; oral days 1,2,3, 0.48 mg/kg): 183% | Toxic deaths (Gross leukemia [1]; oral days 1,2,3, 0.48 mg/kg): 0/10 | T/C %, median survival time (Gross leukemia [1]; oral days 1,2,3, 0.62 mg/kg): 208% | Toxic deaths (Gross leukemia [1]; oral days 1,2,3, 0.62 mg/kg): 0/10 | Toxic deaths (Gross leukemia [1]; oral days 1,2,3, 0.8 mg/kg, two experiments): 2/20 | T/C %, median survival time (Gross leukemia [1]; oral days 1,2,3, 0.8 mg/kg, two experiments (range)): 233-258% | antitumor activity given orally at day 1 (Gross leukemia [1]; oral day 1, Gross leukemia, Id at the Mx TD vs DX i.v.): less active than DX i.v. | antitumor activity given orally days 1,2,3 (Gross leukemia [1]; oral days 1,2,3, vs DX i.v.): higher than that of DX given i.v. | cytotoxicity in comparison with DX (HeLa cells; HeLa cells cloning efficiency): as cytotoxic as DX | activity at 0.0015 µg/mL (HeLa cells; [5]): 106% | activity at 0.0062 µg/mL (HeLa cells; [5]): 59% | activity at 0.025 µg/mL (HeLa cells; [5]): 0% | activity at 0.1 µg/mL (HeLa cells; [5]): 0% | IC50 (HeLa cells; Homo sapiens, Table 3, 24 hrs): ~0.007 µg/mL (≈ 0.0136 µM) | LTS, long term survivors (≥ 60 days) (ascitic P388 leukemia; Table 5, 1.12 mg/kg i.p. day 1): 0/10 | T/C, median survival time; % over untreated controls (ascitic P388 leukemia; Table 5, 1.12 mg/kg i.p. day 1): 170% | Toxic deaths (autoptic findings on dead mice) (ascitic P388 leukemia; Table 5, 1.12 mg/kg i.p. day 1): 0/10 | LTS, long term survivors (≥ 60 days) (ascitic P388 leukemia; Table 5, 1.68 mg/kg i.p. day 1): 0/10 | T/C, median survival time; % over untreated controls (ascitic P388 leukemia; Table 5, 1.68 mg/kg i.p. day 1): 185% | Toxic deaths (autoptic findings on dead mice) (ascitic P388 leukemia; Table 5, 1.68 mg/kg i.p. day 1): 0/10 | LTS, long term survivors (≥ 60 days) (ascitic P388 leukemia; Table 5, 2.53 mg/kg i.p. day 1): 1/10 | T/C, median survival time; % over untreated controls (ascitic P388 leukemia; Table 5, 2.53 mg/kg i.p. day 1): 230% | Toxic deaths (autoptic findings on dead mice) (ascitic P388 leukemia; Table 5, 2.53 mg/kg i.p. day 1): 2/10 | times more potent than DX (ascitic P388 leukemia; ascitic P388, i.p. day 1): about 5 times | antileukemia activity against P388 leukemia (ascitic P388 leukemia; vs DX): good but lower than that of DX | antitumor activity, comparison of the Mx TD (Gross leukemia [2]; Gross leukemia, i.v. day 1): good antitumor activity, which is of the same order of magnitude as that of DX | toxicity and potency vs parent compounds (Gross leukemia [2]; Gross leukemia, i.v. day 1): more toxic and more potent than the parent compounds | T/C, median survival time; % over untreated controls (Gross leukemia [2]; 1.2 mg/kg i.v. day 1): 171% | Toxic deaths (Gross leukemia [2]; 1.2 mg/kg i.v. day 1): 1/10 | T/C, median survival time; % over untreated controls (Gross leukemia [2]; 2.16 mg/kg i.v. day 1): 200% | Toxic deaths (Gross leukemia [2]; 2.16 mg/kg i.v. day 1): 1/10 | T/C, median survival time; % over untreated controls (Gross leukemia [2]; 3.8 mg/kg i.v. day 1): 114% | Toxic deaths (Gross leukemia [2]; 3.8 mg/kg i.v. day 1): 5/9
